Assay [1] concerns the target T1, Subtilisin-like protease 1 (Plasmodium falciparum) (UniProt O61142).
T1 sequence (whole entry): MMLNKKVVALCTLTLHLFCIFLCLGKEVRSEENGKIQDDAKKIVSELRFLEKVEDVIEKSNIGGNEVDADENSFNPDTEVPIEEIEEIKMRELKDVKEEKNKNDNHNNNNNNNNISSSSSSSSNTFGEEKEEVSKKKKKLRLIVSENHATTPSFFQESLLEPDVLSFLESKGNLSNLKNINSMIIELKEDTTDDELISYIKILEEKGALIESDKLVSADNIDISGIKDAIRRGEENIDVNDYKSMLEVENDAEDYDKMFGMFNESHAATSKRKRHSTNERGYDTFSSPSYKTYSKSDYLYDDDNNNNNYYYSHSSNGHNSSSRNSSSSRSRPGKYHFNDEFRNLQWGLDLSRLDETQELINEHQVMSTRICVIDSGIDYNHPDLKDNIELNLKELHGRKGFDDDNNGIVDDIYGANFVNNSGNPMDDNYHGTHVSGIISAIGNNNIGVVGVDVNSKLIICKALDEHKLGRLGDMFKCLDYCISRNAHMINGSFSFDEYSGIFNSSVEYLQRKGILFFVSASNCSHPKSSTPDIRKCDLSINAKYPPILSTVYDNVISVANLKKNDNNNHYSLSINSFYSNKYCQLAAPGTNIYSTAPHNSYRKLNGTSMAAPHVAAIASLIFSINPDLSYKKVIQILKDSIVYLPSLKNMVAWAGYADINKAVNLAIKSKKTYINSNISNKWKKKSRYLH
Put plainly: Inhibition of Plasmodium falciparum SUB1 assessed as residual hydrolytic activity at 50 uM by fluorimetric assay.

In assay [2] the target is T2, Subtilisin-like protease 1 (Plasmodium falciparum, UniProt O61142).
T2 sequence (O61142 whole entry): T1 sequence (whole entry)
Put plainly: Inhibition of Plasmodium falciparum SUB1 by fluorimetric assay.

Regarding `Cc1cc(NNC(=O)c2ccc([N+](=O)[O-])cc2)c2cc3c(cc2n1)OCO3`, in assay [1], the Activity stood at 64.4%.
Still for that read-out and setting: then `N#Cc1ccc(/C=N/Nc2c3c(nc4ccccc24)CCCC3)cc1`, with 81.5%.
On the same count and under the same terms, then `O=C(NNc1nc2ccccc2[nH]1)c1ccc([N+](=O)[O-])cc1`, with 46.7%; and `Cc1cc(NNC(=O)c2ccc(C#N)cc2)c2cc3c(cc2n1)OCO3`, with 85.5%; and `Cc1cc(N/N=C/c2ccc(C(F)(F)F)cc2)c2cc3c(cc2n1)OCO3`, with 86.1%.
Take `COc1ccc2nccc(N/N=C/c3ccc([N+](=O)[O-])cc3)c2c1`: in assay [1], the Activity was found to be 32.4%. Also, the IC50 in assay [2] came out at 50 µM.
Take `Cc1cc(N/N=C/c2ccc(Cl)cc2)c2cc3c(cc2n1)OCO3`: the Activity in assay [1] worked out at 77.9%.
Still for that read-out and setting: then `Cc1cc(N/N=C/c2cccc([N+](=O)[O-])c2)c2cc3c(cc2n1)OCO3`, with 97.2%.
As for `Cc1cc(N/N=C/c2ccc([N+](=O)[O-])cc2)c2cc3c(cc2n1)OCO3`, the Activity in assay [1] came to 27.2%. In assay [2], this molecule showed a concentration for half-maximal inhibition (IC50) of 20 µM.
In the case of `O=[N+]([O-])c1ccc(/C=N/Nc2ccncc2)cc1`, the Activity in assay [1] amounted to 84.6%.
Same read-out and setting: then `Cc1cc(N/N=C/c2ccc(/C(N)=N/O)cc2)c2cc3c(cc2n1)OCO3`, with 73.9%.
With `COC(=O)c1ccc(/C=N/Nc2cc(C)nc3cc4c(cc23)OCO4)cc1`, the Activity in assay [1] was 85%.
On to `COc1ccc2nc(C)cc(N/N=C/c3ccc([N+](=O)[O-])cc3)c2c1`, for which the Activity in assay [1] is 12.3%. Moreover, in assay [2], half-maximal inhibition (IC50) required 20 µM.
Take `Cc1cc(N/N=C/c2ccc(S(C)(=O)=O)cc2)c2cc3c(cc2n1)OCO3`: in assay [1], the Activity came to 76.4%.
Still for that read-out and setting: then `Cc1cc(N/N=C/c2ccc(NS(C)(=O)=O)cc2)c2cc3c(cc2n1)OCO3`, with 72.2%; and `N#Cc1ccc(/C=N/Nc2ccnc3ccccc23)cc1`, with 74.3%; and `Cc1cc(N/N=C/c2ccc(C#N)cc2)c2ccccc2n1`, with 85%.
Same read-out and setting: then `CSc1ccc(/C=N/Nc2cc(C)nc3cc4c(cc23)OCO4)cc1`, with 77.5%.
Take `Cc1cc(N/N=C/c2ccc(C=O)cc2)c2cc3c(cc2n1)OCO3`: the Activity in assay [1] worked out at 86.5%.
Turning to `CC(=O)Nc1ccc(/C=N/Nc2cc(C)nc3cc4c(cc23)OCO4)cc1`, in assay [1], the Activity worked out at 70.9%.
On the same count and under the same terms, then `CCOC(OCC)c1ccc(/C=N/Nc2cc(C)nc3cc4c(cc23)OCO4)cc1`, with 75.6%.
Same read-out and setting: then `Cc1cc(N/N=C/c2ccc(F)cc2)c2cc3c(cc2n1)OCO3`, with 97%; and `Cc1cc(N/N=C/c2ccc(C(F)(F)F)cc2C(F)(F)F)c2cc3c(cc2n1)OCO3`, with 62.1%; and `O=[N+]([O-])c1ccc(/C=N/Nc2ccnc3ccccc23)cc1`, with 80.6%.
Take `Cc1cc(N/N=C/c2ccc(C(=O)O)cc2)c2cc3c(cc2n1)OCO3`: the Activity in assay [1] came out at 75.5%.
On the same count and under the same terms, then `C/C(=N\Nc1cc(C)nc2cc3c(cc12)OCO3)c1ccc([N+](=O)[O-])cc1`, with 60.3%; and `Cc1cc(/N=C/c2ccc([N+](=O)[O-])cc2)c2cc3c(cc2n1)OCO3`, with 72.2%.
Still for that read-out and setting: then `Cc1cc(N/N=C/c2ccc([S+](C)[O-])cc2)c2cc3c(cc2n1)OCO3` (configuration not stated), with 92.4%; and `Cc1cc(N/N=C/c2ccc(Br)cc2)c2cc3c(cc2n1)OCO3`, with 78.2%.
For `O=[N+]([O-])c1ccc(/C=N/Nc2c3c(nc4ccccc24)CCCC3)cc1`, the Activity in assay [1] was 55.8%. In addition, in assay [2], the IC50 was above 50 µM.
As for `Cc1cc(N/N=C/c2ccccc2[N+](=O)[O-])c2cc3c(cc2n1)OCO3`, in assay [1], the Activity was 38.6%. This molecule also came in with an IC50 in assay [2] of 40 µM.
For the molecule `O=[N+]([O-])c1ccc(C=NNc2nc3ccccc3[nH]2)cc1`, the Activity in assay [1] turned out to be 43.1%. The molecule also displayed an IC50 in assay [2] above 50 µM.
Take `Cc1cc(NNC(=O)c2ccc(S(C)(=O)=O)cc2)c2cc3c(cc2n1)OCO3`: the Activity in assay [1] was 68.7%.
In the case of `Cc1cc(N/N=C/c2ccc(C#N)cc2)c2cc3c(cc2n1)OCO3`, the Activity in assay [1] worked out at 29.2%. This molecule also yielded an IC50 in assay [2] of 40 µM.
Regarding `Cc1cc(N/N=C/c2ccccc2C(F)(F)F)c2cc3c(cc2n1)OCO3`, in assay [1], the Activity was found to be 100%.
